Calls of active or inactive are those of the source. The calls are words filed in the database; no cut-off is given here.
Legend:
Assay type in all cases: functional, cell-based
[1] = biological target: Protein smoothened (Mus musculus) (UniProt P56726); test: Agonist activity at SMO in mouse NIH3T3 cells assessed as induction of SMO accumulation in primary cilia incubated for 12 hrs by AlexaFluor 488/ DAPI staining based immunofluorescence method; details: filed as agonist
[2] = biological target: Protein smoothened (Mus musculus) (UniProt P56726); test: Agonist activity at SMO in mouse NIH3T3 cells assessed as fluorescent intensity of ciliary SMO incubated for 12 hrs by fluorescence method; details: filed as agonist
[3] = biological target: Protein smoothened (Mus musculus) (UniProt P56726); test: Agonist activity at SMO in mouse NIH3T3 cells assessed as induction of SMO accumulation in primary cilia incubated for 12 hrs by fluorescence method; details: filed as agonist
[4] = biological target: Protein smoothened (Mus musculus) (UniProt P56726); test: Antagonist activity at SMO in mouse NIH3T3 cells preincubated for 2 hrs followed by SAG stimulation and measured after 24 hrs in presence of GDC0449 by Bright-Glo luciferase assay; details: time 26.0 hrs
[5] = biological target: Protein smoothened (Mus musculus) (UniProt P56726); test: Agonist activity at SMO in mouse NIH3T3 cells preincubated for 2 hrs followed by SAG stimulation and measured after 24 hrs in presence of GDC0449 by Bright-Glo luciferase assay; details: filed as agonist, time 26.0 hrs
[6] = biological target: Protein smoothened (Mus musculus) (UniProt P56726); test: Antagonist activity at SMO in mouse NIH3T3 cells preincubated for 2 hrs followed by ShhN stimulation and measured after 24 hrs in presence of GDC0449 by Bright-Glo luciferase assay; details: filed as antagonist, time 26.0 hrs
[7] = biological target: Protein smoothened (Mus musculus) (UniProt P56726); test: Antagonist activity at SMO in mouse NIH3T3 cells preincubated for 2 hrs followed by SAG stimulation and measured after 24 hrs by Bright-Glo luciferase assay; details: time 26.0 hrs

Chain of Protein smoothened (Mus musculus) (P56726 whole entry): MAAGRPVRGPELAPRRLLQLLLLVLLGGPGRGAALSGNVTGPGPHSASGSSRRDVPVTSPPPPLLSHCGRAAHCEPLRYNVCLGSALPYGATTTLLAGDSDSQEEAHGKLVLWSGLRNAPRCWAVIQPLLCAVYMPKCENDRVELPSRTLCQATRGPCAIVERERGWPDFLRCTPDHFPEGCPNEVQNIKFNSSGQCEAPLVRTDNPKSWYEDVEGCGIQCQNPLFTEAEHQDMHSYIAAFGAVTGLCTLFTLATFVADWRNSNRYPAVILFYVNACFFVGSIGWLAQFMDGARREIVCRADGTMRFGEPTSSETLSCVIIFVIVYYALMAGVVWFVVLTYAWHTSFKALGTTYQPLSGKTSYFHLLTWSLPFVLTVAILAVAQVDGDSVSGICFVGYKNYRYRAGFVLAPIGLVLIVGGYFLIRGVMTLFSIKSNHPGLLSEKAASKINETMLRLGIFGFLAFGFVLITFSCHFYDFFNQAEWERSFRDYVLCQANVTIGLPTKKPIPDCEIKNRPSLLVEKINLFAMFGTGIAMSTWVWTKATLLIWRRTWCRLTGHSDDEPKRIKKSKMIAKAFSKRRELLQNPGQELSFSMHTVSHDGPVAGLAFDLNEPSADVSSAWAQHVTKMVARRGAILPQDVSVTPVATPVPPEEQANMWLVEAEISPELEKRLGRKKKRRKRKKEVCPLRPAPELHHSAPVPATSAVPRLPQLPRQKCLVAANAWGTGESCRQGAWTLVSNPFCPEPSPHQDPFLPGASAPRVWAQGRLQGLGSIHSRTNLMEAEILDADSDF

SMILES	Activity [1]	Activity [2]	Activity [3]	Activity [4]	Activity [5]	Activity [6]	Activity [7]
CC(C)CCC[C@](C)(O)[C@H]1CC[C@H]2[C@@H]3CC=C4C[C@@H](O)CC[C@]4(C)[C@H]3CC[C@@]21C	Active	Active	Active	inactive	Active	Active	
CC(O)(CCCCCCOCCOCc1cn(CCOCCS(=O)(=O)c2ccc(C(=O)Nc3ccc(Cl)c(-c4ccccn4)c3)c(Cl)c2)nn1)C1CC[C@H]2[C@@H]3CC=C4C[C@@H](O)CC[C@]4(C)[C@H]3CC[C@]12C (stereo partly drawn)							inactive
CC(O)(CCCCCCOCc1cn(CCOCCS(=O)(=O)c2ccc(C(=O)Nc3ccc(Cl)c(-c4ccccn4)c3)c(Cl)c2)nn1)C1CC[C@H]2[C@@H]3CC=C4C[C@@H](O)CC[C@]4(C)[C@H]3CC[C@]12C (stereo partly drawn)							inactive
